In article PMC3479967 (Evidence-based Complementary and Alternative Medicine : eCAM, 2012):

Tests used:
[1] = design: method as in PMID 17632044; details: after a single oral administration of Epimedium pubescens decoction; cited from earlier work
UGT2B17 = biological target: T1, UGT2B17 (Homo sapiens, UniProt O75795); experiment: Inhibition of recombinant UGT2B17 activity (4-MU glucuronidation)
T1 sequence (O75795 24-530): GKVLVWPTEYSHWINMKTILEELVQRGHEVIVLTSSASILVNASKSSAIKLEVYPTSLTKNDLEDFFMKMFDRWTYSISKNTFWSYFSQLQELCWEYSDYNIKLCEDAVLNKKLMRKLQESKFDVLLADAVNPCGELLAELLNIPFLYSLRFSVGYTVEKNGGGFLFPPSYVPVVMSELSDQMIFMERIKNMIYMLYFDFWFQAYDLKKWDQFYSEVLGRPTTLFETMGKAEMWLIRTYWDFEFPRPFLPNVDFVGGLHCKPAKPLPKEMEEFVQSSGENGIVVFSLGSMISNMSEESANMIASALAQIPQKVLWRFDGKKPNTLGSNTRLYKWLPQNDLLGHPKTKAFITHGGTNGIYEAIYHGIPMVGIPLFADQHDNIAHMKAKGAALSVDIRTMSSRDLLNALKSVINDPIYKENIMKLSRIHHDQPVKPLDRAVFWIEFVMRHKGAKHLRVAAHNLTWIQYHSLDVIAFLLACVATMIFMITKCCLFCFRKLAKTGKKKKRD
Procedure: (§1) A panel of recombinant human UGT supersomes (UGT1A1, UGT1A3, UGT1A4, UGT1A6, UGT1A7, UGT1A8, UGT1A9, UGT1A10, UGT2B4, UGT2B7, UGT2B15, and UGT2B17) expressed in baculovirus-infected insect cells were purchased from BD Gentest Corp. (Woburn, MA, USA).
(§2) 4-MU, a nonselective substrate of UGTs, was used as probe substrate for all UGTs except UGT1A4. Incubations with each individual enzyme were conducted using conditions previously described. There was a 5 min preincubation step at 37°C before the reaction was started by addition of UDPGA. The incubation mixtures were then centrifuged at 20,500 ×g for 15 min to obtain the supernatant. Aliquots (20 μL) were then analyzed by HPLC. The HPLC system (SHIMADZU, Kyoto, Japan) consisted of an SCL-10A system controller, two LC-10AT pumps, a SIL-10A auto injector, and a SPD-10AVP UV detector. Chromatographic separation was achieved using a Kromasil ODS column (4.6 × 150 mm I.D., 5 μm particle size) at a flow rate of 1 mL/min and UV detection at 316 nm. The mobile phase consisted of 10 mM KH2PO4, pH 2.7 (A) and acetonitrile (B). The following gradient was applied at a flow rate of 1 mL/min: 0–4 min 80% A and 20% B, 4.1–8 min 50% A and 50% B, 8.1–12 min, 30% A and 70% B. All experiments were performed in two independent experiments in duplicate.
(§3) A typical incubation mixture contained recombinant human UGTs, 5 mM MgCl2, 5 mM UDPGA, 50 μg/mg protein alamethicin, 50 mM Tris-HCl buffer (pH 7.4), and various probe substrates of UGTs in the absence or presence of different concentrations of inhibitors. […] The final concentration of DMSO in the incubation system was 1% (v/v). […]
(§4) Inhibition data from experiments were graphically represented by Dixon plots. K i values were calculated by nonlinear regression using the equations for competitive inhibition (1), noncompetitive inhibition (2), or mixed inhibition (3), [22] […] The type of inhibition was determined from the enzyme inhibition models. Goodness of fit to kinetic and inhibition models was assessed from the F statistic, r ^2 values, parameter standard error estimates, and 95% confidence intervals. […]

UGT1A8 = biological target: T2, UGT1A8 (Homo sapiens, UniProt Q9HAW9); experiment: Inhibition of recombinant UGT1A8 activity (4-MU glucuronidation)
T2 sequence (Q9HAW9 26-530): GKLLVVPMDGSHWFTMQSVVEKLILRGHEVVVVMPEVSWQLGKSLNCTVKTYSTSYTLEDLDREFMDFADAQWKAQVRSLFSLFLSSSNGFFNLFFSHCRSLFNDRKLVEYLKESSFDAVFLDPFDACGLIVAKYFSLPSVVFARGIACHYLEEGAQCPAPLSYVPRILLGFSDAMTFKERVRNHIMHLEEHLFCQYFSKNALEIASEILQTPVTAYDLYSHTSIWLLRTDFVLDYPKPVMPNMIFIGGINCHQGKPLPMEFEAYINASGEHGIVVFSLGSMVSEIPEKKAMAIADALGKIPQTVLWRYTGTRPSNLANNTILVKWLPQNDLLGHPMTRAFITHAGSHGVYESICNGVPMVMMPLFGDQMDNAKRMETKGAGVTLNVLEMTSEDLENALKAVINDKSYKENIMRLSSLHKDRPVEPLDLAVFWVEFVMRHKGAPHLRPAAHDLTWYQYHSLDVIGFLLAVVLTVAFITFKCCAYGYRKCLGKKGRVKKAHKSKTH
Procedure: as §1, §2, §3, §4

CYPs = tested on: CYPs; design: method as in PMID 16476124; details: previous studies; cited from earlier work
[2] = reported value, as fraction; cited from earlier work
[3] = cited from earlier work

Row | IC50 (UGT2B17) | IC50 (UGT1A8) | SMILES | Reported icaritin concentration in blood [1] | Inhibitory effect on CYPs activities (CYPs) | Oral bioavailability [2] | Fraction of icariin transformed into its intestinal metabolites in the intestinal lumen [3]
1 | > 100 µM | > 100 µM | COc1ccc(-c2oc3c(CC=C(C)C)c(O)cc(O)c3c(=O)c2O)cc1 [Icaritin] | 1.5 nM |  |  | 
2 | > 100 µM | > 100 µM | COc1ccc(-c2oc3c(CC=C(C)C)c(O[C@@H]4O[C@H](CO)[C@@H](O)[C@H](O)[C@H]4O)cc(O)c3c(=O)c2O)cc1 [Icariside I] |  |  |  | 

Row | SMILES | IC50 (UGT2B17) | IC50 (UGT1A8) | Reported icaritin concentration in blood [1] | Inhibitory effect on CYPs activities (CYPs) | Oral bioavailability [2] | Fraction of icariin transformed into its intestinal metabolites in the intestinal lumen [3]
3 | COc1ccc(-c2oc3c(CC=C(C)C)c(O[C@@H]4O[C@H](CO)[C@@H](O)[C@H](O)[C@H]4O)cc(O)c3c(=O)c2O[C@@H]2O[C@@H](C)[C@H](O)[C@@H](O)[C@H]2O)cc1 [Icariin] | > 100 µM | > 100 µM |  | no inhibitory effects | 0.12 | about 70%
